According to PubChem BioAssay AID850 (SRMLSC, 2007):
The source made the active and inactive calls. The rule behind the calls is not given here.

Legend:
[1] = tested on: Saccharomyces cerevisiae growth inhibition, permissive control; assay: concentration-response yeast growth inhibition under permissive conditions, counter-assay for yeast lifespan-shortening chemical project (AID 850);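 note: growth read as optical density after one day of incubation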
[2] = as above; conditions: Saccharomyces cerevisiae growth inhibition, permissive control, measured here: maximum growth inhibition, stronger effect = higher value

SMILES	inhibition ([2]; at 50 µM)	further results
CCn1c2ccccc2c2cc(Nc3cc(C)nc4ncnn34)ccc21	–	IC50 [1]: > 100 µM (inactive); inhibition ([2]; at 6.25 µM): 14.4%
O=C(OCn1ncc(Br)c(Br)c1=O)c1ccccc1Cl	–	IC50 [1]: > 100 µM (inactive); inhibition ([2]; at 0.781 µM): 10.5%
Nc1cccc2nc3ccccc3cc12	–	inhibition ([2]; at 25 µM): 38.6%
CC1=C(C)/C(=N\OS(=O)(=O)c2ccc(C)cc2)C=CC1=O	–	IC50 [1]: 8.79 µM; inhibition ([2]; at 25 µM): 99.2%
S=C(NCC1CCCCC1)Nc1ccc(Oc2ccccc2)cc1	–	IC50 [1]: > 100 µM (inactive); inhibition ([2]; at 0.781 µM): 7.72%
Cc1nc(Nc2ccc(Cl)c(Cl)c2)sc1C(=O)Nc1ccccc1	15.6%	IC50 [1]: > 100 µM (inactive)
O=Nc1c(O)n(Cc2ccc(Cl)c(Cl)c2)c2ccccc12	58.3%	IC50 [1]: 43.1 µM
Cc1ccc(-c2nc3sc(C(N)=O)c(N)c3c3c2CCCC3)cc1	14.4%	IC50 [1]: > 100 µM (inactive)
Oc1c(CN2CCc3ccccc3C2)cc(Cl)c2cccnc12	101%	IC50 [1]: 11.5 µM
O=C(NC1CCCCC1)Sc1ccc(Cl)cc1	24.2%	IC50 [1]: > 100 µM (inactive)
COc1cc(Br)cc(/C=N/c2ncn[nH]2)c1O	97.8%	IC50 [1]: 18.3 µM
COc1cccc(C(=O)O/N=C(\N)Cc2ccc(Cl)cc2)c1	–	IC50 [1]: 6.32 µM; inhibition ([2]; at 12.5 µM): 97.5%
CCC(=O)c1c(O)n(C2CCCCCC2)c(=O)[nH]c1=O	91%	IC50 [1]: 29 µM
O=C1NCCCC1C(=O)N/N=C/c1cccc(O)c1 (stereo not drawn)	–	IC50 [1]: > 100 µM (inactive); inhibition ([2]; at 1.563 µM): 16%
N#CC(c1cccc(Cl)c1)c1ccc2c(C(F)(F)F)cc(C(F)(F)F)nc2n1 (stereo not drawn)	4.48%	IC50 [1]: > 100 µM (inactive)
C/C(=N\Nc1ccc([N+](=O)[O-])cc1)c1ccc(N)cc1	94.4%	IC50 [1]: 6.04 µM
CCc1cc(-c2n[nH]c(C)c2Oc2ccc(C(C)C)cc2)c(O)cc1O	75.6%	IC50 [1]: 35 µM
Cc1ccc(N/N=C/c2cccnc2)cc1	97%	IC50 [1]: 13 µM
CC1=C(C)CC2C(=O)N(c3cccc4ccccc34)C(=O)C2C1 (stereo not drawn)	8.57%	IC50 [1]: > 100 µM (inactive)
Oc1cc(-c2ccccc2)c2ccccc2c1	92.8%	IC50 [1]: 35.3 µM
CCN1/C(=C/c2ccc3ccc(C)cc3[n+]2CC)Sc2ccccc21	92.9%	IC50 [1]: 21.7 µM
Cc1cccc(N=Nc2ccc(O)c3ncccc23)c1	27.9%	IC50 [1]: > 100 µM (inactive)
O=[N+]([O-])c1ccccc1-c1cc(-c2cc(Cl)ccc2O)n[nH]1	–	IC50 [1]: > 100 µM (inactive); inhibition ([2]; at 12.5 µM): 16.3%
Cc1cccc(OCCCOc2cccc3cccnc23)c1C	33.1%	–
COc1ccc(N/N=C(\C#N)C(N)=O)cc1	–	inhibition ([2]; at 25 µM): 36.4%
COC(=O)CSC1=NS(=O)(=O)c2ccccc21	–	IC50 [1]: > 100 µM (inactive); inhibition ([2]; at 12.5 µM): 27.4%
O=C(NNC(=S)NC(=O)C12CC3CC(CC(C3)C1)C2)c1ccncc1	94.8%	IC50 [1]: 13.4 µM

SMILES	inhibition ([2]; at 50 µM)	further results
COc1ccccc1N1CCN(C(CNC(=O)c2ccco2)c2cccnc2)CC1 (stereo not drawn)	18.3%	IC50 [1]: > 100 µM (inactive)
Cc1ccc(C)c(-n2nnnc2SCC(=O)Nc2cccc(-c3nnc4n3CCCCC4)c2)c1	17.5%	IC50 [1]: > 100 µM (inactive)
CCc1cc2c(=O)[nH]c(-c3ccccn3)nc2s1	86.2%	IC50 [1]: 23.6 µM
COc1ccc(OCCNC2CCCC2)cc1	–	IC50 [1]: > 100 µM (inactive); inhibition ([2]; at 0.195 µM): 7.53%
Cc1onc(-c2ccccc2)c1C(=O)NC(=S)NNC(=O)c1ccc(O)cc1O	–	inhibition ([2]; at 12.5 µM): 44.7%
CC(=O)c1c(C)oc2c1C(=O)c1ccccc1C2=O	39.7%	–
Oc1ccccc1NCC(O)Cn1ccc2ccccc21 (stereo not drawn)	30.2%	–
Clc1ccc2nnnc(-c3ccccc3)c2c1	37.5%	–
CC1CCc2c(sc3nc(CN4CCOCC4)nc(Sc4ccccc4)c23)C1 (stereo not drawn)	33.9%	–
COc1ccc2nc(NC(=S)N(C)C)sc2c1	–	inhibition ([2]; at 12.5 µM): 35%
CC(=O)N1N=C(c2ccc(Cl)cc2)OC1(C)C	–	inhibition ([2]; at 3.125 µM): 41%
O=C(N/N=C1\CC2CC=CC12)c1ccc(COc2ccccc2)cc1 (stereo not drawn)	35.1%	–
CCOC(=O)c1cnc(-n2nc(C)cc2C)nc1NNc1cc(C)nc(-c2ccccc2)n1	48.1%	–
CC(C)N=c1scc(-c2ccco2)n1/N=C/c1ccc(O)c(O)c1	36.7%	–
CCCOC(=O)c1ccc(Oc2cn[nH]c2-c2ccc(OCC)cc2O)cc1	–	inhibition ([2]; at 3.125 µM): 34.6%
O=[N+]([O-])c1ccc(N=Nc2ccc(O)cc2O)cc1	36.3%	–
CS(=O)(=O)N1CCN(C(=O)c2ccccc2F)CC1	–	inhibition ([2]; at 3.125 µM): 34.8%
C=CCSC(=C(C#N)C#N)c1cc2c([nH]1)CCCC2	32.9%	–
O=c1c2cccc3c2c(nn1CN1CCOCC1)-c1ccccc1-3	47.5%	–
COc1ccc(NCc2ccc([N+](=O)[O-])s2)c(OC)c1	43.9%	–
COc1cc(/C=C2/C(=O)ON=C2c2ccccc2)ccc1O	45.6%	–
O=C1CN(CC(=O)N2CCCCC2)c2ccccc2O1	37.7%	–
O=S(=O)(Nc1ccc(-c2nc3ccccc3o2)cc1)c1ccccc1	30.1%	–
CN1CCN(Cc2cc(COCc3ccccc3)c3cccnc3c2O)CC1	51.7%	–
O=Nc1c2nc3ccccc3n(O)c-2c2ccccc12	37.8%	–
Cc1ccc2nc(-c3ccc(NS(=O)(=O)c4ccc(F)cc4)cc3)sc2c1	42.9%	–
Cc1cccc(Cn2ncc(Cl)c(Cl)c2=O)c1	31.1%	–

SMILES	inhibition ([2]; at 50 µM)	further results
O=[N+]([O-])c1ccc(C2Oc3ccccc3C3CC(c4ccccc4)=NN32)s1 (stereo not drawn)	45%	–
OCCN(CCO)CC(O)COc1ccc(C23CC4CC(CC(C4)C2)C3)cc1 (stereo not drawn)	–	inhibition ([2]; at 25 µM): 35.6%
Cc1cc(C)c2c(N=NN(C)C)[nH]nc2n1	–	inhibition ([2]; at 25 µM): 35.6%
CCOc1ccc(/C=C/[N+](=O)[O-])c2ccccc12	33.5%	–
Cc1nn(-c2ccccc2)c2sc(-c3n[nH]c(=S)o3)cc12	36.1%	–
N/C(=N\OC(=O)c1ccc(Cl)cc1Cl)c1ccccc1	–	inhibition ([2]; at 12.5 µM): 32.3%
Cc1ccc(N=Nc2ccc(O)c3ncccc23)cc1	30.3%	–
COc1ccc(-n2c(Cc3cccn3C)nnc2SCC(=O)N2CCCC2)cc1	–	inhibition ([2]; at 12.5 µM): 37.7%
CCOc1ccc(NCc2nc3ccccc3n2CCOc2ccccc2)cc1	30.3%	–
O=c1c2ccccc2nc2sc3ccccc3n12	38.4%	–
O=C(CCCSc1ccccc1)Nc1nc(-c2ccccn2)cs1	39%	–
CCCCCC1CCC(C(=O)O)CC1 (stereo not drawn)	51.8%	–
O=C(Cc1cccs1)NNC(=S)NC(=O)c1ccccc1	–	inhibition ([2]; at 25 µM): 41%
COc1cccc(/C=N/N2C(=O)CSC2=S)c1O	34.1%	–
Cc1nn(-c2ccccc2)c2sc(C(=O)O)cc12	41.3%	–
COc1ccc2[nH]c3c(Cl)ncnc3c2c1	35.5%	–
O=c1c2c([N+](=O)[O-])cc([N+](=O)[O-])cc2sn1-c1ccc(Br)cc1	–	inhibition ([2]; at 25 µM): 36.1%
Cc1cc(OCc2ccc(C(=O)NN=C3CCCC3)cc2)ccc1Cl	54.2%	–
Oc1c(Cl)cc(Cl)cc1Sc1cc(Cl)cc(Cl)c1O	–	inhibition ([2]; at 25 µM): 40.3%
O=S(=O)(Nc1ccc(-c2csc(-c3ccccc3)n2)cc1)c1ccc(F)cc1	–	inhibition ([2]; at 3.125 µM): 34.3%
CCCOC(=O)c1ccc(Oc2cn[nH]c2-c2ccc(OC)cc2O)cc1	32.4%	–
O=C1c2ccccc2C(=O)C1c1ccc2ccccc2n1	–	inhibition ([2]; at 25 µM): 30.6%
O=C(NC(Nc1nc2ccc([N+](=O)[O-])cc2s1)(C(F)(F)F)C(F)(F)F)c1ccccc1	34.1%	–
O=C(CN1CCN(c2ncc(C(F)(F)F)cc2Cl)CC1)NCCNc1ncc(C(F)(F)F)cc1Cl	38.3%	–
Cc1ccc2nc(-c3ccc(NS(=O)(=O)c4ccc(F)c(F)c4)cc3)sc2c1	–	inhibition ([2]; at 12.5 µM): 39.1%
CCCCc1ccc(NS(=O)(=O)c2cccs2)cc1	34.1%	–
Cc1ccc(O)c(C(=O)CC(=O)c2cccc(F)c2)c1	44.8%	–

SMILES	inhibition ([2]; at 50 µM)	further results
O=C(OCn1ncc(Cl)c(Cl)c1=O)c1ccccc1Cl	54.5%	–
CCOc1cc(CNCCO)cc(Br)c1OCc1ccc(Cl)cc1Cl	46.1%	–
Cc1cc(N2CCN(C(=O)c3ccco3)CC2)n2ncc(-c3ccccc3)c2n1	51.7%	–
Cc1c2cc(O)c(=O)cc-2oc2cc(O)c(O)cc12	–	inhibition ([2]; at 25 µM): 39.9%
O=C(O)Cc1cc(I)c(Oc2ccc(O)c(I)c2)c(I)c1	38.6%	–
O=C(O)c1cc2c(ccc3ccccc32)oc1=O	38.3%	–
c1cc2c(cc1C1CCCCC1)c1c3n2CCCNC3CCC1 (stereo not drawn)	38.7%	–
c1ccc(-c2ccc(-c3ccccn3)nn2)nc1	36.1%	–
NNC(=O)c1cccc(COc2ccc(Br)cc2)c1	54.5%	–
Cn1c2ccccc2c(=O)n2c(=O)c3ccccc3cc12	–	inhibition ([2]; at 12.5 µM): 30.2%
CCc1ccc2c(c1)C1(NN=C(c3cccc4ccccc34)S1)C(=O)N2 (stereo not drawn)	32.3%	–
N#CCSc1nc2ccccc2c2nc3ccccc3n12	–	inhibition ([2]; at 25 µM): 39.2%
Cc1ccc(C(=O)/C=C/c2cn(CN3CCN(C)CC3)c3ccccc23)cc1	34.5%	–
O=c1cccc2n1Cc1cc3ccccc3nc1-2	32.4%	–
Cc1cc(C)c2c(N=NN3CCCCC3)[nH]nc2n1	–	inhibition ([2]; at 25 µM): 39.3%
CCc1cc2c(cc(C(=O)O)n2C)s1	–	inhibition ([2]; at 25 µM): 48.3%
OCc1ccc(O)c2ncccc12	33.1%	–
CCCCn1c(=O)c(C(=O)NCc2ccncc2)c(O)c2ccccc21	41.3%	–
Cn1c(=O)c2nc(-c3ccccc3)oc2c2ccccc21	38.2%	–
Cc1cc2sc(C(=O)O)c(C)c2s1	57.7%	–
O=C(c1c[nH]c(C(=O)C(Cl)(Cl)Cl)c1)c1ccccc1Cl	–	inhibition ([2]; at 25 µM): 46.3%
COC(=O)c1ccc2c(c1O)C(=O)c1ccccc1C2=O	57.6%	–
Cc1ccc(N2CCOCC2)c2c1C(=O)c1ccccc1C2=O	32.3%	–
Cc1cc2c(cc(C(=O)O)n2C)s1	34.3%	–
